# Experimental data: patent publication US12448382B2, “Heterocyclic compounds for mediating tyrosine kinase 2 activity” (GUANGZHOU INNOCARE PHARMA TECH CO., LTD., priority 2019, dated 2025)
# How the values were obtained:
# [1] = biological target: T1, human recombinant JAK2 protein (Homo sapiens, UniProt O60674); assay: JAK2 Inhibition Assay (HTRF kinase assay); assay type: biochemical; details: human recombinant JAK2, 2.5 μM ATP substrate solution
# T1 construct: purchased Carna Biosciences 08-045
# Procedure, shortened: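 Recombinant human JAK2 was preincubated 15 min at room temperature with compound in buffer containing 5 mM MgCl2, 1 mM DTT and 0.01% Brij35. Substrate solution (2.5 μM ATP, 0.25 μM biotinylated TK substrate) was then added for 30 min. Phosphorylation was detected by HTRF (665/620 nm ratio; no-enzyme = 100% inhibition), and IC50 was fitted from an 8-point, 4-fold series.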
# [2] = biological target: T2, human recombinant TYK2 protein (Homo sapiens, UniProt P29597); assay: TYK2 Inhibition Assay (HTRF kinase assay); assay type: biochemical; details: human recombinant TYK2, 11.25 μM ATP substrate solution
# T2 construct: purchased Carna Biosciences 08-147
# T2 sequence (P29597 871-1187 limits assumed): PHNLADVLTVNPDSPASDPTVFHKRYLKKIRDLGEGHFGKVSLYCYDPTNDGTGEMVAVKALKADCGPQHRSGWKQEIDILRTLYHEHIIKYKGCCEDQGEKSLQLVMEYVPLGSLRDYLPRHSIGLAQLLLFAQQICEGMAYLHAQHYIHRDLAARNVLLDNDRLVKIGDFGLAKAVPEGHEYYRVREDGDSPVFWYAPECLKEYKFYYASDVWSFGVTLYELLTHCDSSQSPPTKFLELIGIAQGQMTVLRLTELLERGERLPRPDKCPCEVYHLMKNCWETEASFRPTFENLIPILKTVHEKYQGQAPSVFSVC
# Procedure, shortened: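 Recombinant human TYK2 was pre-incubated 15 min at room temperature with compound, then reacted for 40 min with biotinylated tyrosine-kinase substrate and ATP (substrate solution 11.25 μM ATP, 0.5 μM substrate; 5 mM MgCl2, 0.01% Brij35). Phosphorylation was read by HTRF 665/620 ratio, normalised to no-enzyme and no-compound controls, and IC50 was fitted from 8 4-fold dilutions.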
# [3] = test system: IL-12-induced IFN-γ secretion in NK92 cells; assay: Inhibition of IL-12-induced IFN-γ Secretion in NK92 Cells (ELISA); assay type: cell-based, human; details: Homo sapiens, 24 hours incubation, 8 concentration points, read-out: IC50 (NK92_IL12/IFNγ)
# Procedure, shortened: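 NK92 cells (100,000/well, IL-2-free medium) rested overnight, then treated with compound plus IL-12 for 24 h at 37 °C. Secreted IFN-γ measured in supernatant by ELISA. Inhibition normalized to unstimulated and IL-12/0.2% DMSO controls; IC50 fitted from 8 concentrations.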
# T1 sequence (O60674 826-1132 limits assumed): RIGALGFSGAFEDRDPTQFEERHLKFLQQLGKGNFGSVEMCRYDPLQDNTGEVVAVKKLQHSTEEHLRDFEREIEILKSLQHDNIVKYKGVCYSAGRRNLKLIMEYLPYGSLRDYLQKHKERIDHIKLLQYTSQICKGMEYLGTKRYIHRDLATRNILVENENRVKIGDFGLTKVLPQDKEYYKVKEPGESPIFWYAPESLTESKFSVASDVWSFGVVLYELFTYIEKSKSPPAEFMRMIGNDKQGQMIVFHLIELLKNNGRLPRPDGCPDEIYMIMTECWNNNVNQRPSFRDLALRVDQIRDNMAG
SMILES,IC50 [1] [nM],IC50 [2] [nM],IC50 [3] [nM]
"Cn1cc(Nc2ncc(Cl)c(N3C[C@@H]4CN(C(=O)C5CC5)C[C@]4(C)C3)n2)cn1 [Compound 86, ((3aS,6aR)-5-(5-chloro-2-((1-methyl-1H-pyrazol-4-yl)amino)pyrimidin-4-yl)-3a-methylhexahydropyrrolo[3,4-c]pyrrol-2(1H)-yl)(cyclopropyl)methanone]",1.7,0.3,99
"Cn1cc(Nc2ncc(Cl)c(N3C[C@]4(C)CN(C(=O)CO)C[C@]4(C)C3)n2)cn1 [Compound 35, 1-((3aR,6aS)-5-(5-chloro-2-((1-methyl-1H-pyrazol-4-yl)amino)pyrimidin-4-yl)-3a,6a-dimethylhexahydropyrrolo[3,4-c]pyrrol-2(1H)-yl)-2-hydroxyethan-1-one]",3.3,0.6,453
"Cn1cc(Nc2ncc(Cl)c(N3C[C@]4(C)CN(CC#N)C[C@]4(C)C3)n2)cn1 [Compound 85, 2-((3aR,6aS)-5-(5-chloro-2-((1-methyl-1H-pyrazol-4-yl)amino)pyrimidin-4-yl)-3a,6a-dimethylhexahydropyrrolo[3,4-c]pyrrol-2(1H)-yl)acetonitrile]",1.7,2.4,5350
"C[C@@]12CN(C(=O)CC#N)C[C@]1(C)CN(c1nc(Nc3cn[nH]c3)ncc1Cl)C2 [Compound 28, 3-((3aR,6aS)-5-(2-((1H-pyrazol-4-yl)amino)-5-chloropyrimidin-4-yl)-3a,6a-dimethylhexahydropyrrolo[3,4-c]pyrrol-2(1H)-yl)-3-oxopropanenitrile]",0.4,0.2,2210
"Cn1cc(Nc2ncc(Cl)c(N3C[C@]4(C)CN(Cc5ccno5)C[C@]4(C)C3)n2)cn1 [Compound 50, 5-chloro-4-((3aR,6aS)-5-(isoxazol-5-ylmethyl)-3a,6a-dimethylhexahydropyrrolo[3,4-c]pyrrol-2(1H)-yl)-N(1-methyl-1H-pyrazol-4-yl)pyrimidin-2-amine]",0.1,0.3,43

# The remaining compounds from weak to strong by IC50 [1], led by results:
IC50 [1] [nM],IC50 [2] [nM],IC50 [3] [nM],SMILES
156,98,7060,"Cn1cc(Nc2nccc(N3C[C@@H]4CN(Cc5ccno5)C[C@]4(C)C3)n2)cn1 (relative stereo) [Compound 69, cis-4-(5-(isoxazol-5-ylmethyl)-3a-methylhexahydropyrrolo[3,4-c]pyrrol-2(1H)-yl)-N-(1-methyl-1H-pyrazol-4-yl)pyrimidin-2-amine]"
8.8,14,713,"CC(=O)N1C[C@@]2(C)CN(c3nc(Nc4cnn(C)c4)ncc3Cl)C[C@@]2(C)C1 [Compound 19, 1-((3aR,6aS)-5-(5-chloro-2-((1-methyl-1H-pyrazol-4-yl)amino)pyrimidin-4-yl)-3a,6a-dimethylhexahydropyrrolo[3,4-c]pyrrol-2(1H)-yl)ethan-1-one]"
6.2,2.9,215,"C[C@@]12CN(C(=O)C3CC3)C[C@]1(C)CN(c1nc(Nc3cnn(CC#N)c3)ncc1Cl)C2 [Compound 33, 2-(4-((5-chloro-4-((3aR,6aS)-5-(cyclopropanecarbonyl)-3a,6a-dimethylhexahydropyrrolo[3,4-c]pyrrol-2(1H)-yl)pyrimidin-2-yl)arnino)-1H-pyrazol-1-yl)acetonitrile]"
4.6,1.4,1210,"C[C@@]12CN(C(=O)C3CC3)C[C@]1(C)CN(c1nc(Nc3cnn(C(F)F)c3)ncc1Cl)C2 [Compound 30, ((3aR,6aS)-5-(5-chloro-2-((1-(difluoromethyl)-1H-pyrazol-4-yl)amino)pyrimidin-4-yl)-3a,6a-dimethylhexahydropyrrolo[3,4-c]pyrrol-2(1H)-yl)(cyclopropyl)methanone]"
4.5,2.6,729,"Cn1cc(Nc2ncc(Cl)c(N3C[C@H]4CN(C(=O)CC#N)C[C@@]4(C)C3)n2)cn1 [Compound 89, 3-((3aR,6aS)-5-(5-chloro-2-((1-methyl-1H-pyrazol-4-yl)amino)pyrimidin-4-yl)-3a-methylhexahydropyrrolo[3,4-c]pyrrol-2(1H)-yl)-3-oxopropanenitrile]"
